Data from US5342841A, “Xanthine derivatives” (Kyowa Hakko Kogyo Co., Ltd., priority 1992, dated 1994).

How the values were obtained:
Adenosine A1 receptor = target: T1, Adenosine A1 receptor (Cavia porcellus, UniProt P47745); assay: Adenosine A1 receptor binding (3H-CHA); details: guinea pig cerebrum; for Ki: 3H-CHA, Cheng-Prusoff's equation; for inhibition at 100 µM: 10^-4 M test compound; for inhibition at 100 µM / inhibition at 10 µM: 3H-CHA 1.1 nM; for inhibition at 10 µM: 10^-5 M test compound
T1 construct: from tissue; host or cells: guinea pig cerebrum membranes
T1 sequence (P47745 1-326): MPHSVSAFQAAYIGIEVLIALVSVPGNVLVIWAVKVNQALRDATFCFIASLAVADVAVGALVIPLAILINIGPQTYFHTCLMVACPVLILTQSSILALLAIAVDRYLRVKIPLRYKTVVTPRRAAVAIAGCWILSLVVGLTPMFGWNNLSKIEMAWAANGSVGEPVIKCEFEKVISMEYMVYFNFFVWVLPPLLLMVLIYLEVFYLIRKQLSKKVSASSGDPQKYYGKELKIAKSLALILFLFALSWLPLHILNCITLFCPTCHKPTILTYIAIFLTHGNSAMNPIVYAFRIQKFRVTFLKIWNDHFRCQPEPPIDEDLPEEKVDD
Method: This test was conducted according to the method of Bruns et al. [Proc. Natl. Acad. Sci., 77, 5547 (1980)] with slight modification.
Cerebrum of a guinea pig was suspended in ice cooled 50 mM Tris hydroxymethyl aminomethane hydrochloride (Tris HCl) buffer (pH 7.7) by using Polytron homogenizer (manufactured by Kinematicas Co.). The suspension was centrifuged (50,000×g, 10 minutes), and the precipitate was suspended again in the same amount of 50 mM Tris HCl buffer. The suspension was centrifuged under the same conditions, and the precipitate obtained was suspended once again in 50 mM Tris HCl buffer to give a tissue concentration of 100 mg (wet weight)/ml. The tissue suspension was incubated at 37° C. for 30 minutes in the presence of 0.02 unit/mg tissue of adenosine deaminase (manufactured by Sigma Co.). The tissue suspension was then centrifuged (50,000×g, 10 minutes), and 50 mM Tris HCl buffer was added to the precipitate to adjust the concentration of tissue to 10 mg (wet weight)/ml.
To 1 ml of the thus prepared tissue suspension were added 50 μl of cyclohexyladenosine labeled with tritium [^3 H-CHA, 27 Ci/mmol, manufactured by New England Nuclear Co.] (final concentration: 1.1 nM) and 50 μl of a test compound. The mixture was allowed to stand at 25° C. for 90 minutes and then rapidly filtered by suction through a glass fiber filter (GF/C manufactured by Whatman Co.). The filter was immediately washed three times with 5 ml each of ice cold 50 mM Tris HCl buffer, and transferred to a vial, and a scintillator (EX-H by Wako Pure Chemical Industries, Ltd.) was added thereto. The radioactivity on the filter was determined with a scintillation counter (manufactured by Packard Instrument Co.).
The inhibition rate of the test compound against the binding of A1 receptor (^3 H-CHA binding) was calculated by the following equation: [formula]
2. "T" means the radioactivity of ^3 H-CHA bound in the absence of a test compound.
3. "N" means the radioactivity of ^3 H-CHA bound in the presence of 10 μM N^6 -(L-2-phenylisopropyl)adenosine (manufactured by Sigma Co.).
The inhibition constant (Ki value) shown in the table was calculated by the Cheng-Prusoff's equation.

Male Wistar rats = assay: Diuretic activity (oral, saline-loaded rats); format: in vivo, rat; details: for Increase in K+ excretion / Increase in Na+ excretion / Increase in volume of Urine / Na+/K+: 6 hours; for Increase in K+ excretion / Increase in Na+ excretion / Increase in volume of Urine: relative to control; for Na+/K+: relative to control (1.00)
Method: Male Wistar rats weighing 150 to 300 g were fasted for 18 hours. A test compound and saline (25 ml/kg) were orally administered to the test rats and only saline was administered to the control rats. Then, urine was collected for 6 hours. The test was carried out using 3 groups of animals per test compound, each group consisting of 3 animals. The volume of the urine was measured by using a measuring cylinder and electrolytes (Na^+ and K^+) in the urine were assayed with a flame photometer (Model […] manufactured by Hitachi Ltd.). The parameters in Table 3 are all expressed by relative value to the control.

[1] = tested on: left kidneys of male Wistar rats with glycerol-induced renal insufficiency; assay: Pathological examination of removed kidneys (glycerol-induced renal insufficiency model); format: in vivo, rat
Method: (§1) Male Wistar rats were fisted from both food and water for 18 hours. A test compound or saline (control) was intraperitoneally administered to the rats. After 30 minutes, the rats were anesthesized with ether and the back skin was picked up and 0.8 ml/100 g of 50% glycerol was subcutaneously administered. Twenty four hours after the glycerol injection, the rats were anesthesized with ether and 5 ml of the blood was collected from the descending aorta. After being allowed to stand for 30 minutes or longer, the blood sample was centrifuged at 3000 rpm for 10 minutes to obtain the serum. Creatinine in the serum sample was determined using autoanalyzer (AU510, Olympus Optical Co., Ltd.) or clinical analysis kit of creatinine (Creatinine Test Wako; by Wako Pure Chemical Ind., Japan). Urea nitrogen in the serum was determined using autoanalyzer (AU510; made by Olympus Optical Co., Ltd.) or clinical analysis kit of urea nitrogen (Urea Nitrogen Test Wako; by Wako Pure Chemical Ind., Japan).
Further, the left kidneys were taken out from the animals of the test compound-treated groups and the control groups to prepare pathological samples.

[2] = tested on: glycerol-induced renal insufficiency in male Wistar rats; assay: Renal protecting activity (glycerol-induced renal insufficiency model), serum creatinine and urea nitrogen; format: in vivo, rat; details: i.p.; for Creatinine content in serum, test compound administered / Urea nitrogen content in serum, test compound administered: 24 hours after glycerol; for increases in creatinine content and urea nitrogen content of the serum (in words): Compound 1 at 0.1 mg/kg (p<0.001)
Method: Renal insufficiency is the condition that the homeostasis of body fluid is unable to be maintained by disorder of renal function. It is known that subcutaneous or intramuscular administration of glycerol to rat induces acute renal insufficiency characterized by renal tubular disturbance [Can. J. Physiol.
as §1
Test of the significance between the control group and the test compound-administered group was performed by the Student's t-test (n=8 to 10).

Adenosine A2 receptor = target: T2, Adenosine A2 receptor (Rattus norvegicus, UniProt P30543); assay: Adenosine A2 receptor binding test (3H-NECA); details: for Ki: 3H-NECA, CPA 50 nM, rat corpus striatum; for inhibition at 10 µM / inhibition at 100 µM: read-out: A2 Receptor Inhibition (%)
T2 construct: using rat corpus striatum to prepare the final precipitate; from tissue; host or cells: rat corpus striatum membranes
Method: The similar procedure as in 1) above was repeated using rat corpus striatum to prepare the final precipitate. The precipitate was suspended in 50 mM Tris HCl buffer containing 10 mM magnesium chloride and 0.02 unit/mg tissue of adenosine deaminase (manufactured by Sigma Co.) to give a tissue concentration of 5 mg (wet weight)/ml.
To 1 ml of the thus prepared tissue suspension were added 50 μl of a mixture of N-ethylcarboxamidoadenosine labeled with tritium [^3 H-NECA, 26 Ci/mmol, manufactured by Amersham Co.] […] (final concentration: 50 nM), and 50 μl of a test compound. The mixture was allowed to stand at 25° C. for 120 minutes and then treated in the same manner as in 1) above to determine the radioactivity.
The inhibition rate of the test compound against the binding of A2 receptor (^3 H-NECA binding) was calculated by the following equation: [formula]
2. "T" means the radioactivity of ^3 H-NECA bound in the absence of a test compound.
3. "N" means the radioactivity of ^3 H-NECA bound in the presence of 100 μM CPA.
The Ki value shown in the table was calculated by the following equation: [formula]
L: Concentration of ^3 H-NECA
Kd: Dissociation constant of ^3 H-NECA
Kc: Inhibition constant of CPA

[3] = 1 mg/kg, control 4.53 ± 0.19, *** P < 0.001, ** P < 0.01
[4] = 1 mg/kg, control 193.6 ± 6.4, *** P < 0.001, ** P < 0.01

T2 sequence (P30543 whole entry): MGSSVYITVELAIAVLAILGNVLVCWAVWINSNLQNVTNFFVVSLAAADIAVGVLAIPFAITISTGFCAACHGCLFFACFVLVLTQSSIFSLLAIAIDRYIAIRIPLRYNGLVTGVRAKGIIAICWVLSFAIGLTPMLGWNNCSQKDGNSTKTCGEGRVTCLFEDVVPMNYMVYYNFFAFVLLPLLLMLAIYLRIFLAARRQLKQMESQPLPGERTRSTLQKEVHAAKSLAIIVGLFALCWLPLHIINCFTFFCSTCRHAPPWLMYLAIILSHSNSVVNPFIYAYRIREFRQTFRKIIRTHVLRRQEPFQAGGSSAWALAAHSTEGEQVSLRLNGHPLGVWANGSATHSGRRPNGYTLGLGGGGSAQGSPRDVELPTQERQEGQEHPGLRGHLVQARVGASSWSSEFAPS

Row | SMILES | Ki (Adenosine A1 receptor) | inhibition at 100 µM (Adenosine A1 receptor) | inhibition at 10 µM (Adenosine A1 receptor) | Increase in K+ excretion (Male Wistar rats; 0.1 mg/kg) | Increase in Na+ excretion (Male Wistar rats; 0.1 mg/kg) | Increase in volume of Urine (Male Wistar rats; 0.1 mg/kg) | Na+/K+ (Male Wistar rats; 0.1 mg/kg) | Creatinine content in serum, test compound administered [2, 3] | Urea nitrogen content in serum, test compound administered [2, 4] | increases in creatinine content and urea nitrogen content of the serum (in words) ([2]; conclusion from Table 4) | Ki (Adenosine A2 receptor) | inhibition at 10 µM (Adenosine A2 receptor) | inhibition at 100 µM (Adenosine A2 receptor) | Increase in K+ excretion (Male Wistar rats; 1.6 mg/kg) | Increase in Na+ excretion (Male Wistar rats; 1.6 mg/kg) | Increase in volume of Urine (Male Wistar rats; 1.6 mg/kg) | Na+/K+ (Male Wistar rats; 1.6 mg/kg) | Increase in volume of Urine (Male Wistar rats; 25 mg/kg) | Na+/K+ (Male Wistar rats; 25 mg/kg) | also measured
1 | O=c1c2[nH]c(C34CC5CC(CC3C5)C4)nc2n(CC2CC2)c(=O)n1CC1CC1 [Compound 1, 1,3-Bis(cyclopropylmethyl)-8-(3-noradamantyl)xanthine] | 1.9 nM | 101% | 99% | 9% | 146% | 184% | 2.25 | 2.23 ± 0.30 mg/dL | 97.2 ± 13.6 mg/dL | significantly suppressed | > 10000 nM | 49% | 70% | – | – | – | – | – | – | Na+ diuretic action (Male Wistar rats; conclusion in words from Table 3): potent; state of kidneys (pathological examination) [1]: significantly improved; Creatinine content in serum, test compound administered ([2]; 0.1 mg/kg, control 4.53 ± 0.19, *** P < 0.001): 2.52 ± 0.24 mg/dL; Creatinine content in serum, test compound administered ([2]; 0.1 mg/kg, control 4.86 ± 0.12, *** P < 0.001): 1.97 ± 0.21 mg/dL; Urea nitrogen content in serum, test compound administered ([2]; 0.1 mg/kg, control 152.6 ± 4.1, *** P < 0.001): 61.3 ± 8.7 mg/dL; Urea nitrogen content in serum, test compound administered ([2]; 0.1 mg/kg, control 193.6 ± 6.4, *** P < 0.001): 109.4 ± 12.8 mg/dL
2 | O=c1c2[nH]c(C34CC5CC(CC3C5)C4)nc2n(C2CC2)c(=O)n1C1CC1 [Compound 3, 1,3-Dicyclopropyl-8-(3-noradamantyl)xanthine] | 38 nM | 98% | 99% | 0% | 52% | 48% | 1.52 | – | – | – | 1300 nM | 78% | 103% | 8% | 118% | 93% | 2.02 | – | – | –
3 | Cn1c(=O)c2[nH]cnc2n(C)c1=O [Aminophylline, reference compound] | – | – | – | – | – | – | – | – | – | weak effect | – | – | – | – | – | – | – | 34% | 1.62 | Increase in K+ excretion (Male Wistar rats; 25 mg/kg): 17%; Increase in Na+ excretion (Male Wistar rats; 25 mg/kg): 89%; Creatinine content in serum, test compound administered ([2]; 10 mg/kg, control 5.43 ± 0.11, no significance mark): 5.32 ± 0.19 mg/dL; Urea nitrogen content in serum, test compound administered ([2]; 10 mg/kg, control 182.5 ± 3.4, no significance mark): 174.0 ± 10.4 mg/dL
4 | O=c1c2[nH]c(C(C3CC3)C3CC3)nc2n(CC2CC2)c(=O)n1CC1CC1 [Compound 2, 1,3-Bis(cyclopropylmethyl)-8-dicyclopropylmethylxanthine] | 2.7 nM | 101% | 100% | – | – | – | – | – | – | – | 210 nM | 93% | 100% | 4% | 49% | 43% | 1.44 | – | – | –
5 | NS(=O)(=O)c1cc(C(=O)O)c(NCc2ccco2)cc1Cl [Furosemide, reference compound] | – | – | – | – | – | – | – | – | – | – | – | – | – | – | – | – | – | 75% | 1.07 | Creatinine content in serum, test compound administered ([2]; 10 mg/kg, control 3.22 ± 0.35, no significance mark): 4.17 ± 0.41 mg/dL; Urea nitrogen content in serum, test compound administered ([2]; 10 mg/kg, control 110.7 ± 9.4, * P < 0.05): 150.3 ± 13.7 mg/dL; serum creatinine (in words) ([2]; conclusion from Table 4): tendency to increase the serum creatinine
6 | O=c1c2[nH]c(C(C3CC3)C3CC3)nc2n(C2CC2)c(=O)n1C1CC1 [Compound 4, 1,3-Dicyclopropyl-8-dicyclopropylmethylxanthine] | 42 nM | 99% | 99% | – | – | – | – | 2.55 ± 0.43 mg/dL | 108.5 ± 16.8 mg/dL | – | 2400 nM | 104% | 108% | 18% | 54% | 54% | 1.31 | – | – | –
